Values quoted from earlier work as cited in patent publication US7232435B2, “Delivery of a sympatholytic cardiovascular agent to the central nervous system to counter heart failure and pathologies associated with heart failure” (Medtronic, Inc., priority 2004, dated 2007).
Structures can show the parent of a compound that is named as a salt.

Key:
[1] = bolus intravenous injection
[2] = oral or transdermal
[3] = intrathecal delivery

| Structure (SMILES) | autonomic effects (sympathetic outflow, vagal tone, baroreceptor reflex sensitivity) [1] | hemodynamic effects (heart rate, preload, afterload, pulmonary artery and right atrial pressure) [1] | time of peak effects [1] | major side effects [2] | undesirable side effects [3] |
| --- | --- | --- | --- | --- | --- |
| Clc1cccc(Cl)c1N=C1NCCN1 [clonidine HCl] | decreased sympathetic outflow, increased vagal tone and sensitivity of the baroreceptor reflex | Reductions were observed in heart rate, left ventricular filling pressure (preload), mean systemic arterial pressure (afterload), mean pulmonary artery pressure and right atrial pressure | 5 to 20 min |  |  |
| Clc1cccc(Cl)c1N=C1NCCN1 [clonidine, 2-[(2,6-dichlorophenyl)amino]-2-imidazoline] |  |  |  | sedation and dry mouth | Abnormally low blood pressure (hypotension) and bradycardia |
